Columns and labels:
[1] = test system: Human immunodeficiency virus 1; experiment: (§1) Tested for antiviral activity against HIV-III B strain infected human lymphocyte derived CEM cells; type: functional, organism-based, CCRF-CEM
[2] = Maximum concentration obtained in mouse plasma was determined at dose 25 mg/kg; type: ADME, organism-based; set-up: dose 25 mg/kg
[3] = test system: Mus musculus; experiment: Time taken for EC90 was determined when tested in mouse at dose 25 mg/kg; type: ADME, organism-based; set-up: dose 25 mg/kg; details: in vivo
[4] = Area under the curve for the compound is obtained at dose 25 mg/kg; type: ADME, organism-based; set-up: dose 25 mg/kg; details: mouse, in vivo
[5] = molecular target: T1, Human immunodeficiency virus type 1 protease (Human immunodeficiency virus 1, UniProt Q72874); experiment: Binding affinity towards HIV protease was determined
[6] = test system: HIV protease; experiment: (§2) Therapeutic index for HIV protease was determined; details: read-out: Therapeutic index
[7] = molecular target: Human immunodeficiency virus type 1 protease (Human immunodeficiency virus 1) (UniProt Q72874); experiment: In vitro binding affinity to HIV protease was determined
[8] = molecular target: T1, Human immunodeficiency virus type 1 protease; experiment: In vitro binding affinity against HIV protease at pH 6.2.
[9] = Half life in mouse plasma at dose 25 mg/kg; type: ADME, organism-based; set-up: dose 25 mg/kg
[10] = test system: CCRF-CEM; experiment: Tested for the cytotoxic effect in uninfected human lymphocyte derived CEM cells.; type: functional; details: read-out: TC50 (the source's name)
[11] = Bioavailability was obtained by the comparison of AUC of subcutaneous dosing and AUC of oral dosing in mouse at dose 25 mg/kg; type: ADME, organism-based; details: in vivo, read-out: Bioavailabiility
[12] = Bioavailability was obtained by the comparison of AUC of intravenous dosing and AUC of oral dosing in dog; type: ADME, organism-based, Canis lupus familiaris; details: in vivo, read-out: Bioavailabiility
[13] = Half life in mouse plasma was determined at dose 25 mg/kg; type: ADME, organism-based; set-up: dose 25 mg/kg
[14] = organism: Canis familiaris; experiment: Time taken for EC90 was determined when tested in dog; type: ADME, organism-based, Canis lupus familiaris; details: in vivo
[15] = test system: CCRF-CEM; experiment: as §1; type: functional
[16] = Area under the curve for the compound was obtained when tested in dog; type: ADME, organism-based, Canis lupus familiaris; details: in vivo
[17] = organism: Mus musculus; experiment: Time taken for EC90 was determined when tested in mouse; type: ADME, organism-based; details: in vivo
[18] = as §2
[19] = Maximum concentration obtained in mouse plasma was determined; type: ADME, organism-based
[20] = Maximum concentration obtained in dog plasma was determined; type: ADME, organism-based, Canis lupus familiaris
[21] = Half life in dog plasma was determined at dose 10 mg/kg; type: ADME, organism-based, Canis lupus familiaris; set-up: dose 10 mg/kg
[22] = Bioavailability was obtained by the comparison of AUC of subcutaneous dosing and AUC of oral dosing in mouse; type: ADME, organism-based; details: in vivo, read-out: Bioavailabiility
[23] = Area under the curve for the compound was obtained when tested in mouse; type: ADME, organism-based; details: in vivo
[24] = molecular target: T1, Human immunodeficiency virus type 1 protease; experiment: In vitro binding affinity against HIV protease at pH 6.2 was determined
[25] = Therapeutic index was determined; details: read-out: TI
[26] = molecular target: T1, Human immunodeficiency virus type 1 protease; experiment: In vitro binding affinity to HIV protease was determined at pH 4.7
[27] = Human immunodeficiency virus 1, CCRF-CEM

| SMILES | EC50 [1, 27] | selectivity ratio [6] | IC50 [8] | CC50 [10] | also measured |
| --- | --- | --- | --- | --- | --- |
| Cc1cc(SC2=C(O)OC(CCc3ccc(O)cc3)(C(C)C)CC2=O)c(C(C)(C)C)cc1N (stereo not given) | 1 µM | 92 | 0.0027 µM | 92 µM | Cmax [2]: 21 µM; Hours above EC90 [3]: 3.2; AUC [4]: 44.8 µM·h; Ki [5]: 0.67 nM; EC90 [7]: 3.5 µM; half-life [9]: 2.1 h; bioavailability [11]: 59.2% |
| CCCCC1(CCc2ccc(O)cc2)CC(=O)C(Sc2cc(C)c(N)cc2C(C)(C)C)=C(O)O1 (stereo not given) | 3.7 µM | 7 | 0.0044 µM | 25 µM | – |
| Cc1cc(SC2=C(O)OC(CCc3ccccc3)(C(C)C)CC2=O)c(C(C)(C)C)cc1N (stereo not given) | 1.9 µM | 36 | 0.0033 µM | 69 µM | – |
| Cc1cc(SC2=C(O)OC(CCc3ccc(O)cc3)(C3CC3)CC2=O)c(C(C)(C)C)cc1N (stereo not given) | 2.5 µM | 20 | 0.0041 µM | 49 µM | – |
| Cc1cc(SC2=C(O)OC(CCc3ccc(O)cc3)(C3CCCCC3)CC2=O)c(C(C)(C)C)cc1N (stereo not given) | 10 µM | 7 | 0.02 µM | 66 µM | – |
| Cc1cc(SC2=C(O)OC(CCc3ccccc3)(c3ccccc3)CC2=O)c(C(C)(C)C)cc1N (stereo not given) | > 64 µM | < 1 | 0.011 µM | 64 µM | – |
| Cc1cc(SC2=C(O)OC(CCc3ccc(O)cc3)(C(C)C)CC2=O)c(C(C)(C)C)cc1NC(=O)c1ccncc1 (stereo not given) | 5.1 µM | > 20 | 0.00508 µM | > 100 µM | – |
| CCCC1(CCc2ccc(O)cc2)CC(=O)C(Sc2cc(C)c(N)cc2C(C)(C)C)=C(O)O1 (stereo not given) | 4.1 µM | 15 | 0.0038 µM | 62 µM | – |
| Cc1cc(SC2=C(O)O[C@](CCc3ccc(O)cc3)(C(C)C)CC2=O)c(C(C)(C)C)cc1N (stereo in doubt; 15S) | – | – | – | 211 µM | bioavailability [12]: 56%; EC50 ([1]; ccrf-cem): 0.5 µM; half-life [13]: 1.2 h; Hours above EC90 [14]: 8.5; EC90 [15]: 1 µM; AUC [16]: 138 µM·h; Hours above EC90 [17]: 4; Ki [5]: 0.07 nM; Therapeutic index [18]: 422; Cmax [19]: 21.7 µM; Cmax [20]: 71 µM; half-life [21]: 1.7 h; bioavailability [22]: 100%; AUC [23]: 30 µM·h |
| Cc1cc(SC2=C(O)OC(CCc3ccc(O)cc3)(C(C)C)CC2=O)c(C(C)(C)C)cc1NC(=O)c1cccnc1 (stereo not given) | 4.9 µM | > 20 | 0.0051 µM | > 100 µM | – |
| Cc1cc(SC2=C(O)OC(CCc3ccc(O)cc3)(C(C)C)CC2=O)c(C(C)(C)C)cc1N(C)C (stereo not given) | 1.9 µM | 36 | 0.011 µM | 68 µM | – |
| Cc1cc(SC2=C(O)OC(C)(CCc3ccc(O)cc3)CC2=O)c(C(C)(C)C)cc1N (stereo not given) | 9.4 µM | 7 | 0.0096 µM | 66 µM | – |
| Cc1cc(SC2=C(O)OC(CCc3ccc(O)cc3)(C(C)C)CC2=O)c(C(C)(C)C)cc1NC(=O)CC(C)(C)C (stereo not given) | 16 µM | 4 | 0.06 µM | 67 µM | – |
| Cc1cc(SC2=C(O)OC(CCc3ccc(O)cc3)(C(C)C)CC2=O)c(C(C)(C)C)cc1NC(=O)c1ccccn1 (stereo not given) | 1.5 µM | 44 | 0.0061 µM | 66 µM | – |
| Cc1cc(SC2=C(O)O[C@](CCc3ccc(O)cc3)(C(C)C)CC2=O)c(C(C)(C)C)cc1CO | 0.46 µM | – | – | – | Ki [24]: 0.09 nM; selectivity ratio [25]: > 200 |
| Cc1cc(SC2=C(O)OC(C)(CCc3ccc(O)cc3)CC2=O)c(C(C)(C)C)cc1O (stereo not given) | > 7 µM | < 1 | – | 7 µM | – |

| SMILES | EC50 [1, 27] | selectivity ratio [6] | IC50 [8] | CC50 [10] | also measured |
| --- | --- | --- | --- | --- | --- |
| Cc1cc(SC2=C(O)O[C@](CCc3ccc(O)cc3)(C(C)C)CC2=O)c(C(C)(C)C)cc1N (stereo in doubt; 15R) | – | – | – | – | EC50 ([1]; ccrf-cem): 91 µM; Ki [5]: 13 nM; Therapeutic index [18]: 2 |
| Cc1cc(SC2=C(O)OC(CCc3ccc(O)cc3)(C(C)C)CC2=O)c(C(C)(C)C)cc1NC(=O)c1ccccc1 (stereo not given) | 5.4 µM | 12 | 0.0132 µM | 66 µM | – |
| Cc1cc(SC2=C(O)OC(CCc3ccc(O)cc3)(CC(C)C)CC2=O)c(C(C)(C)C)cc1N (stereo not given) | 8.1 µM | 8 | 0.0135 µM | 62 µM | – |
| CC(=O)Nc1cc(C(C)(C)C)c(SC2=C(O)OC(CCc3ccccc3)(C(C)C)CC2=O)cc1C (stereo not given) | 1.8 µM | 46 | 0.0035 µM | 83 µM | – |
| Cc1cc(SC2=C(O)OC(CCc3ccc(O)cc3)(C(C)C)CC2=O)c(C(C)(C)C)cc1NC(=O)c1cccc(C#N)c1 (stereo not given) | 14 µM | 5 | 0.015 µM | 66 µM | – |
| Cc1cc(SC2=C(O)OC(CCc3ccc(O)cc3)(C(C)C)CC2=O)c(C(C)(C)C)cc1NC(=O)c1ccc(C(F)(F)F)cc1 (stereo not given) | 5 µM | 5 | 0.0121 µM | 27 µM | – |
| Cc1ccc(C(C)(C)C)c(SC2=C(O)O[C@](CCc3ccccc3)(c3ccccc3)CC2=O)c1 | – | – | – | – | IC50 [26]: 0.01 µM |
| CC(=O)Nc1cc(C(C)(C)C)c(SC2=C(O)OC(CCc3ccc(O)cc3)(C(C)C)CC2=O)cc1C (stereo not given) | 4.8 µM | > 21 | 0.0034 µM | > 100 µM | – |
| Cc1cc(SC2=C(O)OC(CCc3ccc(O)cc3)(C(C)C)CC2=O)c(C(C)(C)C)cc1NC(=O)OC(C)(C)C (stereo not given) | – | – | 0.091 µM | – | – |
| CCCCCC1(CCc2ccc(O)cc2)CC(=O)C(Sc2cc(C)c(N)cc2C(C)(C)C)=C(O)O1 (stereo not given) | > 24 µM | < 1 | 0.0077 µM | 24 µM | – |
| Cc1cc(SC2=C(O)OC(CCc3ccc(O)cc3)(C(C)C)CC2=O)c(C(C)(C)C)cc1NC(=O)c1ccc(C#N)cc1 (stereo not given) | 4.1 µM | 16 | 0.005 µM | 66 µM | – |
| Cc1cc(SC2=C(O)OC(CCc3ccc(N)cc3)(C(C)C)CC2=O)c(C(C)(C)C)cc1N (stereo not given) | 0.9 µM | 33 | 0.0075 µM | 30 µM | – |
| Cc1cc(SC2=C(O)OC(CCc3ccc(O)cc3)(C3CCCC3)CC2=O)c(C(C)(C)C)cc1N (stereo not given) | 3.8 µM | 22 | 0.006 µM | 82 µM | – |
| Cc1cc(SC2=C(O)OC(CCc3ccccc3)(C(C)C)CC2=O)c(C(C)(C)C)cc1NC(=O)c1ccc(C#N)cc1 (stereo not given) | 8.3 µM | 6 | 0.014 µM | 46 µM | – |
| Cc1cc(SC2=C(O)O[C@](CCc3ccc(N)cc3)(C(C)C)CC2=O)c(C(C)(C)C)cc1CO | – | – | – | – | selectivity ratio [25]: 1050 |
